2 substances from article PMC3836994, “Killer Bee Molecules: Antimicrobial Peptides as Effector Molecules to Target Sporogonic Stages of Plasmodium” (PLoS Pathogens, 2013) can be followed below.

The test system of one data set is P. berghei ookinetes. Description: P. berghei ookinete viability in vitro (erythrosin B). The data set is classed as cell-based, Plasmodium berghei. As to conditions: 30 min; for Reduction in ookinete viability: versus control. How it is done: Our primary aim was to target parasites in mosquitoes before they cross the midgut wall, therefore AMPs were first assessed for their ability to kill ookinetes in vitro. […] Ookinete cultures of P. berghei were established from gametocytaemic blood as previously described. Parasites were enriched using cold 0.17M ammonium chloride after 18 h of culture and washed thoroughly with PBS (phosphate buffered saline). Parasites were seeded in triplicate wells of a 96-well microtitre plate at a density of 1×10^5/ml in a volume of 47.5 µl Schneider's insect medium (Invitrogen) with 2.5 µl of the test AMP (final concentration of 50 µM). Ookinetes were incubated for 30 min in conjunction with triplicate control wells containing medium with 2.5 µl of water instead of AMP. A sub-sample of parasites was then added to an equal volume of 5% erythrosin B to assess viability (150 ookinetes in total, taken from 3 wells). Each of the 33 AMPs was screened in this way and assays were performed 3 times. AMPs displaying a high degree of toxicity (>90% of ookinetes displaying erythrosin B staining) underwent further ookinete assays using a concentration of 100 µM AMP. To assess synergistic effects, combinations of two peptides were also tested at a concentration of 25 µM per AMP, in the assay described above.

The test system of data set [1] is P. falciparum. Briefly: Cultured P. falciparum gametocytes membrane-fed to An. gambiae (oocyst prevalence and intensity). Type of data set: in vivo, Plasmodium falciparum. As to conditions: 50 µM; for Oocyst intensity (mean number of oocysts per gut, range in parentheses), peptide / Oocyst prevalence (oocyst positive mosquitoes), peptide: cultured gametocytes, An. gambiae. How it is done:
P. falciparum NF54 gametocytes were produced through large-scale automated culture at the Pasteur Institute, Paris, [69]. Gametocytes were grown in 10 ml RPMI 1640 medium (Invitrogen), supplemented with 25 mM HEPES and L-glutamine, 10% heat-inactivated human serum and hypoxanthine (20 mg/L) under a constant gas supply (5% CO2, 1% O2, 94% N2). Fresh red blood cells (RBCs) were added to obtain a 7% haematocrit. Fourteen days after initiating the culture, gametocyte maturity was assessed on thin Giemsa-stained blood smears, and male gametocyte maturity verified by exflagellation tests. Gametocyte cultures were centrifuged for 5 min at 1500 rpm and the ∼500–600 µl pellet resuspended in fresh RBCs and AB human serum to give a final haematocrit of 40%.
Blood containing mature gametocytes (475 µl) was added to 25 µl of the test AMP (50 µM final concentration). Peptides were replaced by 25 µl of sterile deionized water for each control. The blood/parasite/peptide mixture was placed in a Hemotek membrane feeder, previously warmed to 37°C. For each feed, 70 to 100 nulliparous female An. gambiae mosquitoes were left to feed in the dark for 15 min and only fully engorged females were transferred to small cages and provided with 10% sucrose containing 0.05% PABA. After 8 days, 30 midguts were dissected and stained with bromo fluorescein for the detection of oocysts.

Another data set concerns P. berghei. Briefly: P. berghei infections in Anopheles stephensi (oocyst prevalence and intensity). Particulars: for Prevalence (proportion of infected mosquitoes), peptide: 50 µM peptide in gametocytaemic mouse blood fed to An. stephensi; for Intensity (mean number of oocysts, range in parentheses), peptide: 50 µM peptide, An. stephensi. The data set is classed as in vivo, Plasmodium berghei. The method, then: To assess the effects of AMPs on parasites in vivo, mouse blood containing P. berghei gametocytes was obtained by cardiac puncture and 475 µl was rapidly mixed with 25 µl (50 µM final concentration) of AMP. This mixture was fed to 100 nulliparous 3–5 day old female An. stephensi. A further 475 µl of blood from the same infection was mixed with 25 µl of distilled water to act as a control. Mosquitoes were maintained at 19°C for optimum parasite development. Between 30 and 50 mosquitoes were dissected after 10 days. Mosquito wing length, numbers of retained eggs and oocysts were recorded in triplicate experiments carried out on different mosquito cohorts.

The test system of data set [2] is Anopheles gambiae Sua 4.0 cells. Description: Sua 4.0 mosquito cell growth (cell counts). Type of data set: cell-based. Particulars: 25 µM AMP; for Average number of cells over 3 replicates, peptide: seeded 30×10^4/ml, mean of 3 experiments. The method, then: (§1) To establish potential effects of AMPs on mosquito cells, the An. gambiae Sua 4.0 cell line was used. This facilitated an initial high-throughput screening and provided insights into AMP toxicity, mode of action (lytic or other) and speed of action. Sua 4.0 cells were maintained at 27°C in Schneider's insect medium supplemented with 10% FBS (foetal bovine serum) in T25 culture flasks (Fisher, UK).
(§2) Each AMP was tested separately to establish if it affected cell viability and growth. […] Cells were maintained for 3, 6, 24 or 48 h, after which they were resuspended and a sub-sample from duplicate wells counted using a haemocytometer. To establish cell viability after 48 h (whether simply arrested in development or non-viable), resuspended cells were added to an equal volume of 5% erythrosin B vital dye and viable cells excluding the stain were counted. The viability of 100 cells in triplicate wells was recorded. Each AMP assay was performed in triplicate and included a negative control minus the peptide (5 µl of water alone added to the medium) and a further control of 5 µl of 10% SDS (sodium dodecyl sulphate) substituted for the AMP as this causes 100% cell lysis.

Data set [3] has as its system An. gambiae (Mali strain). Description: Mosquito oviposition after blood feed containing AMP. As to conditions: for Significance of effect on oviposition: 50 µM AMP, one-way ANOVA, peptide vs control; for Mean no. of eggs laid per mosquito, peptide: after first feed with 50 µM AMP, eggs laid over two nights, averaged per surviving mosquito, 3 or 4 replicates. Type of data set: in vivo, Anopheles gambiae. The method, then:
(§3) Female An. gambiae (Mali strain, 3–5 days old) were used to establish the effects of AMPs on mosquito longevity and fecundity in the absence of confounding factors introduced with parasite infection. Two hundred 3–6 day old females were fed on human O+ whole blood supplemented with 50 µM AMP (or water control, 1 ml total volume) via feeding chambers of a Hemotek membrane feeding system. Fully engorged mosquitoes were randomly moved into four separate cages, each containing 25 mosquitoes, to facilitate monitoring. Mortality rates were recorded daily for a 10-day period, and oviposition sites were provided on the second and third night post-feeding. A second blood feed containing the same AMP was administered 7 days later to mimic the likelihood that mosquitoes would feed at least twice in the field during the development of sporogonic stages of the malaria parasite. Oviposition sites were again provided to assess fecundity through the number of eggs laid as an average per surviving mosquito. Assays for each AMP were repeated in triplicate on separate generations of mosquitoes. Due to egg retention under experimental conditions, egg production is best measured by dissecting mosquitoes that have not been provided with an oviposition site. However, this is not a feasible method of determining fecundity when longevity is also being measured.

Data set [4] relates to An. gambiae (Mali strain). Briefly: Mosquito longevity after blood feeds containing AMP. Type of data set: in vivo, Anopheles gambiae. Particulars: for Significance of effect on longevity over 10 days: 50 µM AMP, Kaplan-Meier, Wilcoxon, peptide vs control; for Percent alive, peptide: over 10 days, 50 µM AMP in human blood, feeds on days 0 and 7, 3 or 4 replicates. The method, then: as §3

Data set [5] deals with Anopheles gambiae Sua 4.0 cells. Briefly: Sua 4.0 mosquito cell viability (erythrosin B exclusion). Type of data set: cell-based. Further details: dose or concentration left out as unconfirmed. Particulars: after 48 h culture; erythrosin B exclusion, 100 cells in triplicate wells. The method, then: as §1, §2
Data set [6] deals with An. gambiae (Mali strain). Description: Mosquito longevity after blood feeds containing AMP. Type of data set: in vivo, Anopheles gambiae. Particulars: 50 µM AMP in blood on days 0 and 7; extended to 30 days.
Data set [7] concerns P. falciparum. Briefly: Field P. falciparum from gametocyte carriers membrane-fed to An. gambiae (Mali). The data set is classed as in vivo, Plasmodium falciparum. Particulars: Replicate 1, 50 µM. From the text: Nyaganabougou, a village approximately 60 km south-west of the Malian capital, Bamako, was used as a site for the source of donors of malaria-infected blood. Due to its proximity to the river Niger, which provides perennial mosquito breeding sites, Nyaganabougou has high numbers of infected individuals and an extended transmission season. Mosquitoes used to establish the An. gambiae Mali colony used for this study were originally collected in the village of Kenieroba (a distance of 15 km from Nyaganabougou). Potential male and female gametocyte carriers between the ages of 6–10 were screened by thick smear and parasite species and density determined by local staff, led by Saibou Doumbia.
Gametocyte carriers were taken to the Malaria Research and Training Centre at the University of Bamako for blood donation. Approximately 4 ml of blood was extracted from carriers and immediately divided into 3 Hemotek membrane feeders for testing 2 separate AMPs and one control for each carrier. Peptides were added to 950 µl of gametocytaemic blood for a final concentration of 50 µM. All parasite-positive individuals were subsequently treated appropriately for parasites and associated symptoms, as determined by, and carried out by, local health workers in Nyaganabougou.
Approximately 120 adult female An. gambiae (Mali, 4–7 days old) were starved overnight, and allowed to feed on the gametocytaemic blood/AMP mix for 30 min. Engorged females were maintained on 10% glucose with 0.05% PABA for 8 days before dissection. No oviposition sites were provided so that fecundity could be measured by determining retained eggs. Mosquito wing length, numbers of retained eggs and oocysts were recorded, and triplicate peptide experiments were carried out on different mosquito cohorts, using blood from different donors. Where possible, a minimum of 50 mosquitoes were dissected for each condition.

The mark [8] stands for this setting: 50 µM of single peptide, n = 150 ookinetes per treatment per replicate.
Setting [9] is: Replicate 1, dissected after 8 days.
[10] abbreviates: over the three replicates, 50 µM.

Where “and” joins values, the source holds several entries; their conditions need not be identical. Identical values can stand only once. Entries after “also recorded” stand apart in the source; their conditions may differ.

Take Melittin: in the data set on P. berghei ookinetes (setting [8]), the “Average ookinete viability (3 reps), peptide” value is reported as 0%. Moreover, the “Reduction in ookinete viability” value in the data set with P. berghei ookinetes (50 µM of single peptide) amounted to 100%. Also, the results for the “Oocyst intensity (mean number of oocysts per gut, range in parentheses), peptide” value in the data set with P. falciparum [1] (Replicate 1), in the data set with P. falciparum [1] (Replicate 2) and with P. falciparum [1] (Replicate 3) were 0, <1 (0–1) and 6 (0–74), respectively. Further, the entries for the “Oocyst prevalence (oocyst positive mosquitoes), peptide” value with P. falciparum [1] (setting [9]), in the data set with P. falciparum [1] (Replicate 2) and with P. falciparum [1] (Replicate 3) were 0% (30), 17% (30) and 37% (30), respectively. Also, in the data set with P. falciparum [1] (over three replicates), the “Average reduction of intensity of infection” value is 57%. Further, the “Average reduction of prevalence” value in the data set on P. falciparum [1] (over three replicates) was 60%. The “Prevalence (proportion of infected mosquitoes), peptide” value is 98% (50) in the data set with P. berghei (Replicate 1), 82% (49) in the data set on P. berghei (Replicate 2) and 72% (50) in the data set on P. berghei (Replicate 3). The “Intensity (mean number of oocysts, range in parentheses), peptide” value in the data set on P. berghei (Replicate 1) was 50 (0–192); with P. berghei (Replicate 2) it was 28 (0–160); in the data set on P. berghei (Replicate 3), 31 (0–412). In addition, the “Average reduction of parasite prevalence” value with P. berghei (setting [10]) came out at 10%. Further, the “Mean oocysts per midgut” value with P. berghei (setting [10]) is on record as 37 oocysts per midgut. Also, the “Reduction of infection intensity” value in the data set with P. berghei (over the three replicates, 50 µM, control mean 114 oocysts) is on record as 68%. The “Reduction in cell number (compared to control)” value in data set [2] (3 hrs in culture) is given as 84%; in data set [2] (24 hrs in culture) it was 100%; in data set [2] (48 hrs in culture), 100%. Further, the “Average number of cells over 3 replicates, peptide” value in data set [2] (3 hrs in culture, haemocytometer count of duplicate wells) was 50000 mL⁻¹; in data set [2] (24 hrs in culture), “no cells remaining and 0 ×10^4/ml”; in [2] (48 hrs in culture), 0 mL⁻¹. Further, the “Significance of effect on oviposition” value in data set [3] is recorded as “N/S”. Also, in data set [3], the “Mean no. of eggs laid per mosquito, peptide” value is 41. In addition, the “Significance of effect on longevity over 10 days” value in data set [4] is “N/S”. Besides, in [4], the “Percent alive, peptide” value is listed as 84%. The “Average viability of cells (3 replicates), peptide” value in [5] is “no intact cells remained; also recorded: No remaining cells”.
With Mastoparan X, the “Average ookinete viability (3 reps), peptide” value in the data set on P. berghei ookinetes (setting [8]) stood at 41%; in the data set on P. berghei ookinetes (100 µM of single peptide), 4%. In addition, the “Reduction in ookinete viability” value is on record as 57% in the data set with P. berghei ookinetes (50 µM of single peptide) and 96% with P. berghei ookinetes (100 µM of single peptide). For the same substance, the “Oocyst intensity (mean number of oocysts per gut, range in parentheses), peptide” value is listed as 2 (0–11) with P. falciparum [1] (Replicate 1); 2 (0–29) in the data set on P. falciparum [1] (Replicate 2); 11 (0–72) in the data set with P. falciparum [1] (Replicate 3); 3 (0–21) with P. falciparum [7] (field parasites and mosquitoes). In addition, the “Oocyst prevalence (oocyst positive mosquitoes), peptide” value is given as 47% (30) in the data set on P. falciparum [1] (setting [9]); 40% (30) with P. falciparum [1] (Replicate 2); 60% (30) in the data set with P. falciparum [1] (Replicate 3); 45% (40) with P. falciparum [7] (blood of gametocyte carriers, progeny of field An. gambiae). For the same substance, in data set [6], the “Effect on longevity over 30 days (in words)” value was “no significant long-term effects on longevity”. Further, the “Significance of effect on oviposition” value in data set [3] is “N/S”. In addition, the “Mean no. of eggs laid per mosquito, peptide” value in data set [3] is 44. The “Significance of effect on longevity over 10 days” value in data set [4] is “N/S”. Also, the “Percent alive, peptide” value in [4] is on record as 84%.
